Measured values reported in PubChem BioAssay (NCI).
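Dose response: 5 concentrations. Exposure: 48 h. Format: 96-well plates. Endpoint: linear interpolation; highest concentration if not reached. At the GI50, growth is halved. At the TGI there is no net growth.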

Columns and labels:
Assay in all cases: NCI-60 cell line screen, 48 h
SW-620 colon = system: SW-620 colon
HOP-62 NSCLC = system: HOP-62 NSCLC
OVCAR-3 ovarian = system: OVCAR-3 ovarian
UACC-62 melanoma = system: UACC-62 melanoma
RPMI-8226 leukemia = system: RPMI-8226 leukemia
TK-10 renal = system: TK-10 renal
IGROV1 ovarian = system: IGROV1 ovarian
U251 CNS = system: U251 CNS
MDA-MB-468 breast = system: MDA-MB-468 breast
SK-MEL-2 melanoma = system: SK-MEL-2 melanoma
UO-31 renal = system: UO-31 renal
M14 melanoma = system: M14 melanoma
HCT-116 colon = system: HCT-116 colon
MDA-MB-435 = system: MDA-MB-435
T-47D breast = system: T-47D breast
HCT-15 colon = system: HCT-15 colon
DU-145 prostate = system: DU-145 prostate
SNB-75 CNS = system: SNB-75 CNS
BT-549 breast = system: BT-549 breast
NCI/ADR-RES ovarian = system: NCI/ADR-RES ovarian
SN12C renal = system: SN12C renal
786-0 renal = system: 786-0 renal
PC-3 prostate = system: PC-3 prostate
OVCAR-4 ovarian = system: OVCAR-4 ovarian
SNB-19 CNS = system: SNB-19 CNS
HT29 colon = system: HT29 colon
EKVX NSCLC = system: EKVX NSCLC
MALME-3M melanoma = system: MALME-3M melanoma
K-562 leukemia = system: K-562 leukemia
NCI-H23 lung = system: NCI-H23 lung
MDA-MB-231 breast = system: MDA-MB-231 breast
SR leukemia = system: SR leukemia
SK-OV-3 ovarian = system: SK-OV-3 ovarian
OVCAR-5 ovarian = system: OVCAR-5 ovarian
NCI-H226 lung = system: NCI-H226 lung
SF-539 CNS = system: SF-539 CNS
COLO 205 colon = system: COLO 205 colon
MOLT-4 leukemia = system: MOLT-4 leukemia
MCF7 breast = system: MCF7 breast
KM12 colon = system: KM12 colon
OVCAR-8 ovarian = system: OVCAR-8 ovarian
ACHN renal = system: ACHN renal
SF-268 CNS = system: SF-268 CNS
HCC-2998 colon = system: HCC-2998 colon
UACC-257 melanoma = system: UACC-257 melanoma
HS 578T breast = system: HS 578T breast
NCI-H522 lung = system: NCI-H522 lung
SK-MEL-5 melanoma = system: SK-MEL-5 melanoma
CAKI-1 renal = system: CAKI-1 renal
LOX IMVI melanoma = system: LOX IMVI melanoma
SF-295 CNS = system: SF-295 CNS
HL-60(TB) leukemia = system: HL-60(TB) leukemia
HOP-92 NSCLC = system: HOP-92 NSCLC
SK-MEL-28 melanoma = system: SK-MEL-28 melanoma
RXF 393 renal = system: RXF 393 renal
NCI-H460 lung = system: NCI-H460 lung
A549 NSCLC = system: A549 NSCLC
A498 renal = system: A498 renal
CCRF-CEM leukemia = system: CCRF-CEM leukemia

CCCCCc1ccc(S(=O)(=O)N(C(C)=O)c2cc(-c3csc(N(C)C(C)=O)n3)ccc2N2CCN(C)CC2)cc1
GI50 (SW-620 colon): 1510 nM
TGI (SW-620 colon): 5.99 µM
GI50 (HOP-62 NSCLC): 8.71 µM
TGI (HOP-62 NSCLC): 17 µM
GI50 (OVCAR-3 ovarian): 6.4 µM
TGI (OVCAR-3 ovarian): 15.1 µM
GI50 (UACC-62 melanoma): 9.44 µM
TGI (UACC-62 melanoma): 17.4 µM
GI50 (RPMI-8226 leukemia): 4.61 µM
TGI (RPMI-8226 leukemia): 19.1 µM
GI50 (TK-10 renal): 9.62 µM
TGI (TK-10 renal): 17.9 µM
GI50 (IGROV1 ovarian): 9.04 µM
TGI (IGROV1 ovarian): 16.9 µM
GI50 (U251 CNS): 7.12 µM
TGI (U251 CNS): 14.7 µM
GI50 (MDA-MB-468 breast): 2990 nM
TGI (MDA-MB-468 breast): 11.9 µM
GI50 (SK-MEL-2 melanoma): 10.2 µM
TGI (SK-MEL-2 melanoma): 19 µM
GI50 (UO-31 renal): 7.22 µM
TGI (UO-31 renal): 14.6 µM
GI50 (M14 melanoma): 3.25 µM
TGI (M14 melanoma): 12.2 µM
GI50 (HCT-116 colon): 2170 nM
TGI (HCT-116 colon): 8.36 µM
GI50 (MDA-MB-435): 2970 nM
TGI (MDA-MB-435): 11.4 µM
GI50 (T-47D breast): 7.66 µM
TGI (T-47D breast): 18 µM
GI50 (HCT-15 colon): 2130 nM
TGI (HCT-15 colon): 8.02 µM
GI50 (DU-145 prostate): 7.52 µM
TGI (DU-145 prostate): 15.4 µM
GI50 (SNB-75 CNS): 6.47 µM
TGI (SNB-75 CNS): 14.2 µM
GI50 (BT-549 breast): 8.89 µM
TGI (BT-549 breast): 17.9 µM
GI50 (NCI/ADR-RES ovarian): 8.01 µM
TGI (NCI/ADR-RES ovarian): 17.3 µM
GI50 (SN12C renal): 7.7 µM
TGI (SN12C renal): 16.2 µM
GI50 (786-0 renal): 4.46 µM
TGI (786-0 renal): 13.5 µM
GI50 (PC-3 prostate): 6.48 µM
TGI (PC-3 prostate): 16.3 µM
GI50 (OVCAR-4 ovarian): 9.87 µM
TGI (OVCAR-4 ovarian): 23.6 µM
GI50 (SNB-19 CNS): 8.81 µM
TGI (SNB-19 CNS): 16.6 µM
GI50 (HT29 colon): 2110 nM
TGI (HT29 colon): 7.89 µM
GI50 (EKVX NSCLC): 7.7 µM
TGI (EKVX NSCLC): 15.8 µM
GI50 (MALME-3M melanoma): 7.61 µM
TGI (MALME-3M melanoma): 15.3 µM
GI50 (K-562 leukemia): 1530 nM
TGI (K-562 leukemia): 59.3 µM
GI50 (NCI-H23 lung): 8.92 µM
TGI (NCI-H23 lung): 17.3 µM
GI50 (MDA-MB-231 breast): 4.01 µM
TGI (MDA-MB-231 breast): 11.8 µM
GI50 (SR leukemia): 1230 nM
TGI (SR leukemia): 4.07 µM
GI50 (SK-OV-3 ovarian): 9.9 µM
TGI (SK-OV-3 ovarian): 18.1 µM
GI50 (OVCAR-5 ovarian): 8.44 µM
TGI (OVCAR-5 ovarian): 16.2 µM
GI50 (NCI-H226 lung): 10.6 µM
TGI (NCI-H226 lung): 24.1 µM
GI50 (SF-539 CNS): 7.18 µM
TGI (SF-539 CNS): 14.5 µM
GI50 (COLO 205 colon): 6.54 µM
TGI (COLO 205 colon): 15.5 µM
GI50 (MOLT-4 leukemia): 2310 nM
TGI (MOLT-4 leukemia): 11.1 µM
GI50 (MCF7 breast): 2220 nM
TGI (MCF7 breast): 8.7 µM
GI50 (KM12 colon): 7.83 µM
TGI (KM12 colon): 17.2 µM
GI50 (OVCAR-8 ovarian): 9.42 µM
TGI (OVCAR-8 ovarian): 19.5 µM
GI50 (ACHN renal): 8.86 µM
TGI (ACHN renal): 16.7 µM
GI50 (SF-268 CNS): 7.35 µM
TGI (SF-268 CNS): 18 µM
GI50 (HCC-2998 colon): 6 µM
TGI (HCC-2998 colon): 13.2 µM
GI50 (UACC-257 melanoma): 7.51 µM
TGI (UACC-257 melanoma): 15.5 µM
GI50 (HS 578T breast): 8.77 µM
TGI (HS 578T breast): 25.6 µM
GI50 (NCI-H522 lung): 8.69 µM
TGI (NCI-H522 lung): 17.3 µM
GI50 (SK-MEL-5 melanoma): 7.04 µM
TGI (SK-MEL-5 melanoma): 14.4 µM
GI50 (CAKI-1 renal): 6.19 µM
TGI (CAKI-1 renal): 13.6 µM
GI50 (LOX IMVI melanoma): 1010 nM
TGI (LOX IMVI melanoma): 1900 nM
GI50 (SF-295 CNS): 2560 nM
TGI (SF-295 CNS): 10.2 µM
GI50 (HL-60(TB) leukemia): 1570 nM
TGI (HL-60(TB) leukemia): 6.24 µM
GI50 (HOP-92 NSCLC): 5.97 µM
TGI (HOP-92 NSCLC): 16 µM
GI50 (SK-MEL-28 melanoma): 7.98 µM
TGI (SK-MEL-28 melanoma): 15.6 µM
GI50 (RXF 393 renal): 3.99 µM
TGI (RXF 393 renal): 13.3 µM
GI50 (NCI-H460 lung): 1700 nM
TGI (NCI-H460 lung): 6.22 µM
GI50 (A549 NSCLC): 6.37 µM
TGI (A549 NSCLC): 13.8 µM
GI50 (A498 renal): 8.43 µM
TGI (A498 renal): 16.2 µM
GI50 (CCRF-CEM leukemia): 3.63 µM
TGI (CCRF-CEM leukemia): 13.7 µM
